From patent publication US20140113888A1, “Novel Combination of Therapeutic Agents” (Glaxo Group Limited, priority 2011, published 2014)
Each block holds one molecule with its values, some of them ahead of it.

Columns and labels:
[1] = clinical studies of fluticasone furoate (general statement); format: in vivo, human
[2] = 8 week randomised, double-blind, placebo-controlled study in persistent uncontrolled asthma; format: in vivo, human
Method: In one such study, the safety and efficacy of four doses of fluticasone furoate in subjects with persistent uncontrolled asthma were evaluated. In this study, which was a randomised, double-blind, placebo-controlled, parallel group study, 598 patients received one of six treatments: fluticasone furoate (25, 50, 100 or 200 mcg) once daily, fluticasone propionate 100 mcg twice daily or placebo for 8 weeks. The primary endpoint was change from baseline in trough (pre-dose) forced expiratory volume in 1 second (FEV1) at Week 8. […] This study supports the use of fluticasone furoate (100 or 200 mcg once-daily) for the treatment of persistant uncontrolled asthma.

human M3 receptor = human M3 receptor (Homo sapiens, UniProt P20309); test: reversibility at the human M3 receptor in vitro; format: binding
[3] = duration of action in vivo, administered directly to the lungs in pre-clinical models
[4] = clinical pharmacology studies, single inhaled doses, plethysmography (sGaw, Raw) and spirometry (FEV1); format: in vivo, human; conditions: healthy volunteers and COPD patients
Method: Several clinical pharmacology studies have been conducted using umeclidinium bromide in both healthy volunteers and COPD patients to investigate the safety, tolerability, pharmacokinetics and pharmacodynamics of this compound. The bronchodilatory effects and duration of action of single inhaled doses of this compound as measured by plethysmography (sGaw, Raw) and spirometry (FEV1) were assessed in some of the above noted studies.

[5] = 28 day once-daily dry powder inhaler study in subjects with COPD; format: in vivo, human; conditions: 125, 250 and 500 mcg once-daily, 28 days
Source text: A further study evaluated the efficacy and safety of three doses (125 mcg, 250 mcg and 500 mcg) of umeclidinium bromide administered once-daily via a dry powder inhaler over a 28 day period in subjects with COPD.

muscarinic receptor = test: studies in animal models and in humans: muscarinic receptor antagonism
[6] = 14-day once-daily study in subjects with COPD; format: in vivo, human; conditions: 14 days
Source text: In addition, this study confirmed that umeclidinium bromide has a once-daily profile.

human M3 receptor, sequence (P20309 whole entry): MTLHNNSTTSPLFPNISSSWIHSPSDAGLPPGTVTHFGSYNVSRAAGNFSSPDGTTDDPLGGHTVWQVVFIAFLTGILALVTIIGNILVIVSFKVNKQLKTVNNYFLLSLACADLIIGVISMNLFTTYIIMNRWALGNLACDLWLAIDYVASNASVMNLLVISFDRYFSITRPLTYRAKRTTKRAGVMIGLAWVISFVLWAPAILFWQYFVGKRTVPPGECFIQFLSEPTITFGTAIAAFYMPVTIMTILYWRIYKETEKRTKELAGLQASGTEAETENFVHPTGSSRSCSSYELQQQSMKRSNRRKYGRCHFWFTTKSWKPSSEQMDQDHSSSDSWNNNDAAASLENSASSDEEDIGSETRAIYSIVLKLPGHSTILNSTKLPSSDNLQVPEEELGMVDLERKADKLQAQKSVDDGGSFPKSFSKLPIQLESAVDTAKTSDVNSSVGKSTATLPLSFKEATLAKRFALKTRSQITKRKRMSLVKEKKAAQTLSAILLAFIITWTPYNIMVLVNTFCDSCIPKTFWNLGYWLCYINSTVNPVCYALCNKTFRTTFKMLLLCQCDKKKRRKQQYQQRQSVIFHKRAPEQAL

Structure (SMILES): C[C@@H]1C[C@H]2[C@@H]3C[C@H](F)C4=CC(=O)C=C[C@]4(C)[C@@]3(F)[C@@H](O)C[C@]2(C)[C@@]1(OC(=O)c1ccco1)C(=O)SCF [fluticasone furoate, 6α,9α-difluoro-17α-[(2-furanylcarbonyl)oxy]-11β-hydroxy-16α-methyl-3-oxo-androsta-1,4-diene-17β-carbothioic acid S-fluoromethyl ester]
tolerability ([1]; clinical studies): well-tolerated
activity after dosing ([1]; inhaled): still active 24 hours after dosing
change from baseline in trough FEV1 at Week 8 relative to placebo ([2]; 50-200 mcg once daily, p<0.05): significantly greater increases
increase in trough FEV1 at Week 8 ([2]; 100 mcg once daily): > 200 mL
increase in trough FEV1 at Week 8 ([2]; 200 mcg once daily): > 200 mL

reversibility at the human M3 receptor (human M3 receptor): slow reversibility
Structure (SMILES): OC(c1ccccc1)(c1ccccc1)C12CC[N+](CCOCc3ccccc3)(CC1)CC2.[Br-] [umeclidinium bromide, 4-[hydroxy(diphenyl)methyl]-1-{2-[(phenylmethyl)oxy]ethyl}-1-azoniabicyclo[2.2.2]octane bromide]
duration of action in vivo [3]: long duration of action
bronchodilatory effects (sGaw, Raw, FEV1) [4]: clinically relevant bronchodilation
duration of action [4]: 24 h
bronchodilation [5]: significant bronchodilation over twenty four hours
safety [5]: safe
muscarinic receptor antagonist profile (muscarinic receptor): long acting high-affinity pan-active muscarinic receptor antagonist
pulmonary function compared to placebo ([6]; 62.5, 125, 250, 500 and 1000 mcg once-daily): statistically significant improvements
trough FEV1 versus open label tiotropium active control (18 mcg once-daily) ([6]; all once-daily doses 62.5-1000 mcg): numerically greater improvement
